Test results: EP4273147A1, “SUBSTITUTED SPIROLACTAMS, SALTS THEREOF AND THEIR USE AS HERBICIDALLY ACTIVE SUBSTANCES” (Bayer Aktiengesellschaft, priority 2022, dated 2023)

Experiments:
VIOTR [1] = assay: Herbicidal post-emergence action, section E (Table E10); assay type: in vivo, Viola tricolor; conditions: application rate 320 g/ha; assessed visually after ca. 3 weeks
Source text: (§1) 2 to 3 weeks after sowing, the test plants were sprayed in the single-leaf stage.

TRZAS [2] = assay: Post-emergence effects on crop plants (Table F2); assay type: in vivo, Triticum aestivum; conditions: application rate 320 g/ha, crop plant TRZAS
Source text: as §1

ECHCG [3] = assay: Herbicidal post-emergence action, section E (Table E5); assay type: in vivo, Echinochloa crus-galli; conditions: application rate 320 g/ha; assessed visually after ca. 3 weeks
Source text: as §1

BRSNW = assay: Post-emergence effects on crop plants (Table F5); assay type: in vivo, Brassica napus; conditions: crop plant BRSNW
Source text: as §1

POLCO = assay: Herbicidal pre-emergence action, section C (Table C9); assay type: in vivo, Polygonum convolvulus; conditions: visual grading after ca. 3 weeks
VERPE [4] = assay: Herbicidal pre-emergence action, section C (Table C11); assay type: in vivo, Veronica persica; conditions: application rate 320 g/ha; visual grading after ca. 3 weeks
SETVI [5] = assay: Herbicidal pre-emergence action, section C (Table C10); assay type: in vivo, Setaria viridis; conditions: visual grading after ca. 3 weeks
ECHCG [6] = assay: Herbicidal pre-emergence action, section C (Table C6); assay type: in vivo, Echinochloa crus-galli; conditions: visual grading after ca. 3 weeks
ZEAMX [7] = assay: Post-emergence effects on crop plants (Table F1); assay type: in vivo, Zea mays; conditions: crop plant ZEAMX
Source text: as §1

VIOTR [8] = assay: Herbicidal pre-emergence action, section C (Table C12); assay type: in vivo, Viola tricolor; conditions: visual grading after ca. 3 weeks
DIGSA [9] = assay: Herbicidal pre-emergence action, section C (Table C5); assay type: in vivo, Digitaria sanguinalis; conditions: application rate 320 g/ha; visual grading after ca. 3 weeks
ALOMY [10] = assay: Herbicidal pre-emergence action, section C (Table C2); assay type: in vivo, Alopecurus myosuroides; conditions: application rate 320 g/ha; visual grading after ca. 3 weeks
SETVI [11] = assay: Herbicidal post-emergence action (Table B8); assay type: in vivo, Setaria viridis; conditions: application rate 1280 g/ha
Procedure, shortened: (§2)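 Greenhouse post-emergence screen on potted weeds in sandy loam, treatment at one-leaf stage, visual % control scored ~3 weeks later against untreated plants.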

VERPE [12] = assay: Herbicidal pre-emergence action (Table A11); assay type: in vivo, Veronica persica; conditions: application rate 1280 g/ha; visual grading after ca. 3 weeks
Procedure, shortened: (§3)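 Seeds of monocot and dicot weeds were sown in pots of sandy loam and covered with soil. Each pot held a double sowing: one monocotyledonous plus one dicotyledonous species.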

POAAN [13] = assay: Herbicidal pre-emergence action (Table A7); assay type: in vivo, Poa annua; conditions: application rate 320 g/ha; visual grading after ca. 3 weeks
Procedure, shortened: as §3

SETVI [14] = assay: Herbicidal pre-emergence action (Table A5); assay type: in vivo, Setaria viridis; conditions: application rate 320 g/ha; visual grading after ca. 3 weeks
Procedure, shortened: as §3

ORYZA [15] = assay: Post-emergence effects on crop plants (Table F3); assay type: in vivo, Oryza sativa; conditions: application rate 320 g/ha, crop plant ORYZA
Source text: as §1

ABUTH [16] = assay: Herbicidal post-emergence action (Table B1); assay type: in vivo, Abutilon theophrasti; conditions: application rate 1280 g/ha; treated at one-leaf stage; rated visually after about 3 weeks vs untreated controls (100% = plants have died, 0% = like control plants)
Experimental: Seeds of mono- and dicotyledonous weed plants were placed in plastic pots in sandy loam soil (doubly sown with in each case one species of mono- or dicotyledonous weed plants per pot), covered with soil and cultivated in a greenhouse under controlled growth conditions. 2 to 3 weeks after sowing, the test plants were treated at the one-leaf stage. […] After the test plants had been kept in the greenhouse under optimum growth conditions for about 3 weeks, the activity of the preparations was rated visually in comparison to untreated controls. For example, 100% activity = the plants have died, 0% activity = like control plants.

LOLRI [17] = assay: Herbicidal pre-emergence action (Table A3); assay type: in vivo, Lolium rigidum; conditions: visual grading after ca. 3 weeks
Procedure, shortened: as §3

MATIN [18] = assay: Herbicidal pre-emergence action, section C (Table C8); assay type: in vivo, Matricaria inodora; conditions: application rate 320 g/ha; visual grading after ca. 3 weeks
ECHCG [19] = assay: Herbicidal pre-emergence action (Table A2); assay type: in vivo, Echinochloa crus-galli; conditions: visual grading after ca. 3 weeks
Procedure, shortened: as §3

AMARE = assay: Herbicidal pre-emergence action (Table A8); assay type: in vivo, Amaranthus retroflexus; conditions: application rate 1280 g/ha; visual grading after ca. 3 weeks vs untreated controls (100% = plants have died off, 0% = as control plants)
Source text: Seeds of mono- and dicotyledonous weed plants were sown in plastic pots (double sowings with one species of mono- and one species of dicotyledonous weed plants per pot), in sandy loam, and covered with soil.

STEME = assay: Herbicidal pre-emergence action (Table A6); assay type: in vivo, Stellaria media; conditions: visual grading after ca. 3 weeks
Procedure, shortened: as §3

DIGSA [20] = assay: Herbicidal pre-emergence action (Table A12); assay type: in vivo, Digitaria sanguinalis; conditions: visual grading after ca. 3 weeks
Procedure, shortened: as §3

ABUTH [21] = assay: Herbicidal pre-emergence action, section C (Table C1); assay type: in vivo, Abutilon theophrasti; conditions: application rate 320 g/ha; visual grading after ca. 3 weeks
Source text: Seeds of mono- and dicotyledonous weed plants and crop plants were sown, in plastic or organic planting pots, in sandy loam and covered with soil. The compounds according to the invention, formulated in the form of wettable powders (WP) or as emulsifiable concentrates (EC), were applied to the surface of the covering soil as aqueous suspension or emulsion, with the addition of 0.5% of an additive, at an application rate of 600 1 of water/ha (converted). Following treatment, the pots were placed in a greenhouse and kept under optimum growth conditions for the test plants.

ZEAMX [22] = assay: Pre-emergence effects on crop plants (Table D1); assay type: in vivo, Zea mays; conditions: crop plant, visual grading after ca. 3 weeks
ABUTH [23] = assay: Herbicidal pre-emergence action (Table A1); assay type: in vivo, Abutilon theophrasti; conditions: application rate 1280 g/ha; visual grading after ca. 3 weeks vs untreated controls (100% = plants have died off, 0% = as control plants)
Procedure, shortened: as §3

ORYZA [24] = assay: Pre-emergence effects on crop plants (Table D3); conditions: crop plant; application rate 80 g/ha; visual grading after ca. 3 weeks
LOLRI [25] = assay: Herbicidal pre-emergence action, section C (Table C7); assay type: in vivo, Lolium rigidum; conditions: application rate 320 g/ha; visual grading after ca. 3 weeks
ALOMY [26] = assay: Herbicidal pre-emergence action (Table A9); assay type: in vivo, Alopecurus myosuroides; conditions: application rate 1280 g/ha; visual grading after ca. 3 weeks
Procedure, shortened: as §3

GLXMA [27] = assay: Post-emergence effects on crop plants (Table F4); assay type: in vivo, Glycine max; conditions: application rate 80 g/ha, crop plant GLXMA
Source text: as §1

TRZAS [28] = assay: Pre-emergence effects on crop plants (Table D2); assay type: in vivo, Triticum aestivum; conditions: crop plant; application rate 80 g/ha; visual grading after ca. 3 weeks
MATIN [29] = assay: Herbicidal pre-emergence action (Table A4); assay type: in vivo, Matricaria inodora; conditions: visual grading after ca. 3 weeks
Procedure, shortened: as §3

POAAN [30] = assay: Herbicidal post-emergence action (Table B7); assay type: in vivo, Poa annua; conditions: application rate 1280 g/ha
Procedure, shortened: as §2

GLXMA [31] = assay: Pre-emergence effects on crop plants (Table D4); assay type: in vivo, Glycine max; conditions: crop plant; application rate 80 g/ha; visual grading after ca. 3 weeks
VERPE [32] = assay: Herbicidal post-emergence action, section E (Table E9); assay type: in vivo, Veronica persica; conditions: application rate 320 g/ha; assessed visually after ca. 3 weeks
Source text: as §1

KCHSC = assay: Herbicidal pre-emergence action (Table A10); assay type: in vivo, Kochia scoparia; conditions: visual grading after ca. 3 weeks
Procedure, shortened: as §3

ECHCG [33] = assay: Herbicidal post-emergence action (Table B3); assay type: in vivo, Echinochloa crus-galli; conditions: application rate 1280 g/ha; rated visually after about 3 weeks
Procedure, shortened: as §2

Row | SMILES | post-emergence activity against VIOTR (VIOTR [1]) [%] | post-emergence activity against TRZAS (TRZAS [2]) [%] | post-emergence activity against ECHCG (ECHCG [3]) [%] | pre-emergence activity against POLCO (POLCO; application rate 320 g/ha) [%] | pre-emergence activity against VERPE (VERPE [4]) [%] | pre-emergence activity against SETVI (SETVI [5]; application rate 320 g/ha) [%] | post-emergence activity against ZEAMX (ZEAMX [7]; application rate 320 g/ha) [%] | pre-emergence activity against VIOTR (VIOTR [8]; application rate 80 g/ha) [%] | pre-emergence activity against DIGSA (DIGSA [9]) [%] | pre-emergence activity against ALOMY (ALOMY [10]) [%] | pre-emergence activity against VERPE (VERPE [12]) [%] | pre-emergence activity against POAAN (POAAN [13]) [%] | pre-emergence activity against SETVI (SETVI [14]) [%] | post-emergence activity against ORYZA (ORYZA [15]) [%] | post-emergence activity against ABUTH (ABUTH [16]) [%] | pre-emergence activity against AMARE (AMARE) [%] | pre-emergence activity against ABUTH (ABUTH [23]) [%] | pre-emergence activity against ORYZA (ORYZA [24]) [%] | pre-emergence activity against LOLRI (LOLRI [25]) [%] | pre-emergence activity against ECHCG (ECHCG [6]; application rate 80 g/ha) [%] | further results
1 | O=C1N(Cc2cc(F)c(F)cc2F)CCCC12CCCN(Cc1cc(F)c(F)cc1F)C2=O (single isomer, unassigned; (+)) [I-215, (+)-2,8-bis(2,4,5-trifluorophenylmethyl)-2,8-diazaspiro[5.5]undecane-1,7-dione] | 80 | 0 | 90 | 80 | 80 | 100 | 0 | 90 | 100 | 100 | – | – | – | – | – | – | – | – | – | – | post-emergence activity against BRSNW (BRSNW; application rate 320 g/ha): 0%; pre-emergence activity against ECHCG (ECHCG [6]; application rate 320 g/ha): 100%
2 | O=C1N(Cc2ccccc2F)CCCC12CCN(Cc1ccccc1F)C2=O (racemic) [I-026] | 80 | 0 | – | – | 80 | – | – | 90 | 100 | 100 | 90 | 100 | 100 | 0 | 90 | 90 | 90 | 0 | 100 | 100 | post-emergence activity against SETVI (SETVI [11]): 90%; post-emergence activity against BRSNW (BRSNW; application rate 80 g/ha): 0%; pre-emergence activity against LOLRI (LOLRI [17]; application rate 320 g/ha): 100%; pre-emergence activity against MATIN (MATIN [18]): 90%; pre-emergence activity against ECHCG (ECHCG [19]; application rate 320 g/ha): 100%; pre-emergence activity against STEME (STEME; application rate 320 g/ha): 90%; pre-emergence activity against DIGSA (DIGSA [20]; application rate 320 g/ha): 100%; pre-emergence activity against POLCO (POLCO; application rate 80 g/ha): 80%; pre-emergence activity against ABUTH (ABUTH [21]): 80%; pre-emergence activity against ZEAMX (ZEAMX [22]; application rate 80 g/ha): 0%; pre-emergence activity against SETVI (SETVI [5]; application rate 80 g/ha): 100%; pre-emergence activity against ALOMY (ALOMY [26]): 100%; post-emergence activity against GLXMA (GLXMA [27]): 0%; pre-emergence activity against TRZAS (TRZAS [28]): 0%; post-emergence activity against ZEAMX (ZEAMX [7]; application rate 80 g/ha): 0%; pre-emergence activity against MATIN (MATIN [29]; application rate 320 g/ha): 90%; post-emergence activity against POAAN (POAAN [30]): 90%
3 | O=C1N(Cc2cccc(F)c2F)CCCC12CCN(Cc1c(F)cccc1F)C2=O (racemic) [I-032] | – | 0 | 80 | 80 | 80 | 100 | – | 90 | 100 | 90 | 90 | 100 | 100 | 0 | 90 | 90 | 90 | 0 | 100 | 100 | post-emergence activity against SETVI (SETVI [11]): 90%; pre-emergence activity against GLXMA (GLXMA [31]): 0%; post-emergence activity against VERPE (VERPE [32]): 90%; post-emergence activity against BRSNW (BRSNW; application rate 80 g/ha): 0%; pre-emergence activity against LOLRI (LOLRI [17]; application rate 320 g/ha): 100%; pre-emergence activity against MATIN (MATIN [18]): 80%; pre-emergence activity against KCHSC (KCHSC; application rate 320 g/ha): 90%; pre-emergence activity against ECHCG (ECHCG [19]; application rate 1280 g/ha): 100%; pre-emergence activity against STEME (STEME; application rate 320 g/ha): 90%; pre-emergence activity against DIGSA (DIGSA [20]; application rate 1280 g/ha): 100%; pre-emergence activity against ZEAMX (ZEAMX [22]; application rate 320 g/ha): 0%; post-emergence activity against ECHCG (ECHCG [33]): 90%; pre-emergence activity against ALOMY (ALOMY [26]): 90%; pre-emergence activity against TRZAS (TRZAS [28]): 0%; post-emergence activity against ZEAMX (ZEAMX [7]; application rate 80 g/ha): 20%; pre-emergence activity against MATIN (MATIN [29]; application rate 1280 g/ha): 90%; post-emergence activity against POAAN (POAAN [30]): 90%
4 | O=C1N(Cc2ccccc2)CCCC12CCN(Cc1cccc(F)c1F)C2=O (racemic) [I-039] | – | 0 | – | – | 80 | 100 | 20 | – | 100 | 100 | 90 | 100 | 100 | 0 | 90 | 90 | 90 | 20 | 90 | 100 | pre-emergence activity against LOLRI (LOLRI [17]; application rate 1280 g/ha): 100%; pre-emergence activity against KCHSC (KCHSC; application rate 1280 g/ha): 90%; pre-emergence activity against ECHCG (ECHCG [19]; application rate 320 g/ha): 100%; pre-emergence activity against STEME (STEME; application rate 1280 g/ha): 90%; pre-emergence activity against DIGSA (DIGSA [20]; application rate 320 g/ha): 100%; pre-emergence activity against ABUTH (ABUTH [21]): 90%; pre-emergence activity against ZEAMX (ZEAMX [22]; application rate 80 g/ha): 0%; post-emergence activity against ECHCG (ECHCG [33]): 90%; pre-emergence activity against VIOTR (VIOTR [8]; application rate 320 g/ha): 90%; pre-emergence activity against MATIN (MATIN [29]; application rate 1280 g/ha): 90%
